Results published in patent US11015215B2, “Use of high flux SCFA-derivatized monosaccharides in recombinant glycoprotein production” (The Johns Hopkins University, priority 2014, dated 2021).

How the values were obtained:
sialic acid pathway = settings: cited from earlier work; for efficiency relative to the unmodified sugar: sialic acid production as endpoint
host cells [1] = settings: cited from earlier work; for cytotoxicity over prolonged exposure: beyond 2 to 3 days, up to and within two weeks; for side effects (e.g., cytotoxicity): compared to perbutanoylated, 3,4,6-tributanoylated or peracetylated counterparts
GalNAc salvage pathway = settings: cited from earlier work
[2] = system: hexosamine biosynthetic pathway; settings: cited from earlier work
[3] = system: individual sites of N-glycosylation; settings: cited from earlier work
cell surface sialylation = assay: Overall sialylation of cell surface glycoconjugates after analog supplementation; assay type: cell-based
[4] = system: human protein integrin α4 stably expressed in a CHO line; assay: Azido-sugar labeling of integrin α4 in CHO cells (click biotinylation, streptavidin blot); assay type: cell-based; settings: 100 μM, 24 hours
Experimental: Whole cell lysate from cells treated with 100 μM 1,3,4-O-Bu3ManNAz for 24 hours and “click” chemistry biotinylated were probed with streptavidin (lane 1), and from the same whole cell lysate, integrin α4β1 was immunopurified using human […] antibody and probed with streptavidin (lane 2). Immunopurified integrin α4β1 was again incubated with the human anti-MUC1 antibody and re-purified (lane 3). The band in lane 4 was the same sample as lane 3 but probed with anti-human integrin α4.
FIG. 2 depicts the result of treating the sample of FIG. 1, lane 3, with PNGAse F and sialidase, with samples then visualized using streptavidin HRP.
The use of tri-butanoylated monosaccharides was examined, initially using 1,3,4-O-Bu3ManNAz to label integrin α4 in CHO cells.

host cells [5] = settings: cited from earlier work

## CCCC(=O)OCC1OC(OC(=O)CCC)C(NC(C)=O)[C@@H](OC(=O)CCC)[C@@H]1OC(=O)CCC (stereo partly shown) [Bu4ManNAc, perbutanoylated ManNAc, reference compound]
Sialic acid pathway
  efficiency relative to the unmodified sugar: ~2,100 fold
Host cells [1]
  cytotoxicity over prolonged exposure: host cells died
Host cells [1]; within 2 or 3 days of treatment
  effect on cell growth: slowed cell growth

## CCCC(=O)OC1OC(CO)[C@H](OC(=O)CCC)[C@H](OC(=O)CCC)C1NC(C)=O (stereo partly shown) [1,3,4-O-Bu3GalNAc]
GalNAc salvage pathway
  flux into the GalNAc salvage pathway: high levels of flux
Host cells [1]
  side effects (e.g., cytotoxicity): minimal side effects

## CCCC(=O)OC1OC(CO)[C@@H](OC(=O)CCC)[C@H](OC(=O)CCC)C1NC(C)=O (stereo partly shown) [1,3,4-O-Bu3GlcNAc]
[2]
  flux into the hexosamine biosynthetic pathway: high levels of flux
Host cells [1]
  side effects (e.g., cytotoxicity): minimal side effects

## CCCC(=O)OC1OC(CO)[C@@H](OC(=O)CCC)[C@H](OC(=O)CCC)C1NC(C)=O (stereo partly shown) [1,3,4-O-Bu3ManNAc, tri-butanoylated ManNAc]
[3]; about ⅓ of sites
  increase in sialylation, about ⅓ of glycosylation sites with dramatic increases: ≥ 8 fold
  increase in sialylation, about ⅓ of glycosylation sites with modest increase: ≤ 2 fold
  level of sialylation, about ⅓ of glycosylation sites that did not respond: remained unchanged
[3]
  increase in degree of sialylation of specific N-glycans: ≥ 8 fold
Cell surface sialylation
  increase in overall sialylation (cell surface / glycoconjugates): 50 to 75%
Sialic acid pathway
  flux into the sialic acid pathway: high levels of flux
Host cells [1]
  whole molecule toxicity: lack “whole molecule” toxicity
Host cells [1]; in most cell lines
  growth inhibition: mild growth inhibition

## CCCC(=O)OC1OC(CO)[C@@H](OC(=O)CCC)[C@H](OC(=O)CCC)C1NC(=O)CN=[N+]=[N-] (stereo partly shown) [1,3,4-O-Bu3ManNAz]
[4]
  labeling of integrin α4: definitive labeling

## CC(=O)NC1C(O)OC(CO)[C@@H](O)[C@@H]1O (stereo partly shown) [ManNAc]
Cell surface sialylation
  increase in overall sialylation (cell surface / glycoconjugates): 5 to 10%
Sialic acid pathway
  concentration supplemented to the cell culture media for a robust increase in sialic acid production: up to 50 mM

## CCCC(=O)O.COc1cccc(C#CCON=C2CN3CCC2C3)c1 (stereo not shown) [n-butyrate]
Host cells [5]
  concentration required to elicit desired cell responses: ≥ 10 mM

## CC(=O)NC1C(OC(C)=O)OC(COC(C)=O)[C@@H](OC(C)=O)[C@@H]1OC(C)=O (stereo partly shown) [Ac4ManNAc, peracetylated ManNAc]
Cell surface sialylation
  increase in overall sialylation (cell surface / glycoconjugates): 10 to 25%
Sialic acid pathway
  efficiency relative to the unmodified sugar: several hundred fold more efficient
Host cells [1]
  cytotoxicity over prolonged exposure: cytotoxicity over prolonged exposure to cells
